# Data taken from ChEMBL document CHEMBL5053498, “Acremonamide, a Cyclic Pentadepsipeptide with Wound-Healing Properties Isolated from a Marine-Derived Fungus of the Genus Acremonium” (J Nat Prod, 2021).
# Calls of active or inactive are those of the source. The rule behind the calls is not given here.
# Experiments:
# HaCaT [1] = test: Induction of cell migration in human HacaT cells at 12.5 uM measured after 24 hrs by transwell assay; type: functional
# NIH3T3 [2] = test: Induction of cell migration in mouse NIH3T3 cells at 12.5 uM measured after 24 hrs by transwell assay; type: functional
# [3] = Induction of cell invasion in human HacaT cells at 12.5 uM measured after 24 hrs by transwell assay; type: functional
# [4] = Induction of cell invasion in mouse NIH3T3 cells at 12.5 uM measured after 24 hrs by transwell assay; type: functional
# Caco-2 = test: Cytotoxicity against human Caco-2 cells assessed as cell viability at 3.12 to 50 uM measured after 48 hrs by MTT assay; type: functional, cell-based; details: dose 3.12-50 µM
# HaCaT [5] = test: Cytotoxicity against human HacaT cells assessed as cell viability at 3.12 to 50 uM measured after 48 hrs by MTT assay; type: cell-based; details: dose 3.12-50 µM
# NIH3T3 [6] = test: Cytotoxicity against mouse NIH3T3 cells assessed as cell viability at 3.12 to 50 uM measured after 48 hrs by MTT assay; type: cell-based; details: nih3t3, 48 h, dose 3.12-50 µM
# HaCaT [7] = test: Induction of wound healing in human HacaT cells assessed as increase in ACTC1 mRNA level at 12.5 uM by RT-PCR analysis; type: functional, cell-based
# NIH3T3 [8] = test: Induction of wound healing in mouse NIH3T3 cells assessed as increase in ACTC1 mRNA level at 12.5 uM by RT-PCR analysis; type: functional, cell-based
# HaCaT [9] = test: Induction of wound healing in human HacaT cells assessed as increase in COL1A2 mRNA level at 12.5 uM by RT-PCR analysis; type: functional, cell-based
# NIH3T3 [10] = test: Induction of wound healing in mouse NIH3T3 cells assessed as increase in COL1A2 mRNA level at 12.5 uM by RT-PCR analysis; type: functional, cell-based
# Mus musculus = species on record: Mus musculus; test: Induction of wound healing in BALB/c mouse assessed as reduction in wound area after 6 days; type: functional, organism-based; details: time 6.0 day
smiles,measurement,setting,value
CC(C)[C@@H]1NC(=O)[C@@H](C(C)C)OC(=O)[C@H](C)N(C)C(=O)[C@H](Cc2ccccc2)NC(=O)[C@H](Cc2ccccc2)N(C)C1=O,Activity,HaCaT [1],50%
same,Activity,NIH3T3 [2],50%
same,Activity,[3],50%
same,Activity,[4],50%
same,Activity,Caco-2,inactive
same,Activity,HaCaT [5],Non-Toxic
same,Activity,NIH3T3 [6],Non-Toxic
same,Activity,HaCaT [7],Active
same,Activity,NIH3T3 [8],Active
same,Activity,HaCaT [9],Active
same,Activity,NIH3T3 [10],Active
same,Activity,Mus musculus,Active
